Experimental data from ChEMBL document CHEMBL5226385, “The Antiangiogenic and Antitumor Effects of Scoparasin B in Non-Small-Cell Lung Cancer” (J Nat Prod, 2023).
Active and inactive are the calls of the source. No cut-off for these calls is given here.

Legend:
[1] = test system: NCI-H1299; test: Downregulation of MMP9 mRNA expression in human NCI-H1299 cells at 5 to 15 nM incubated for 24 hrs by qPCR analysis; type: functional, cell-based; conditions: dose 5-15 nM
[2] = target: Vascular endothelial growth factor receptor 2 (Homo sapiens) (UniProt P35968); test: Inhibition of VEGF-A-mediated VEGFR2 signaling pathway in human HMEC-1 cells assessed as reduction in VEGFR2 phosphorylation at Tyr1175 residue at 5 to 15 nM incubated for 36 hrs by western blot analysis; type: cell-based; conditions: dose 5-15 nM
[3] = test system: NCI-H1299; test: Inhibition of vasculogenic-mimicry in human NCI-H1299 cells assessed as inhibition of cell invasion at 5 to 15 nM measured after 24 hrs by Transwell invasion assay; type: functional, cell-based; conditions: dose 5-15 nM
[4] = test system: NCI-H1299; test: Antitumor activity against human NCI-H1299 cells xenografted in BALB/c nude mouse assessed as tumor volume at 1.5 mg/kg, ip administered every other day for 20 days by vernier caliper analysis (reference value: 1206.46 +/-332.44 mm3); type: functional; conditions: time 20 day
[5] = test system: Mus musculus; test: Downregulation of VEGF-A protein expression in tumor of BALB/c nude mouse xenografted with human NCI-H1299 cells at 0.75 to 1.5 mg/kg, ip administered every other day for 20 days by immunohistochemical analysis; type: functional, organism-based; conditions: dose 0.75-1.5 mg/kg, time 20.0 day
[6] = test system: NCI-H1299; test: Downregulation of Snail mRNA expression in human NCI-H1299 cells at 5 to 15 nM incubated for 24 hrs by qPCR analysis; type: functional, cell-based; conditions: dose 5-15 nM
[7] = Toxicity against BALB/c nude mouse xenografted with human NCI-H1299 cells assessed as morphological changes in lungs at 0.75 to 1.5 mg/kg, ip administered every other day for 20 days by Hematoxylin and eosin staining based inverted microscopic analysis; type: organism-based; conditions: in vivo, 480 h, dose 0.75-1.5 mg/kg, time 20 day
[8] = test system: NCI-H1299; test: Inhibition of vasculogenic-mimicry in human NCI-H1299 cells assessed as inhibition of capillary-like network formation by measuring reduction in tube number and vascular branches at 5 to 15 nM measured after 6 hrs by Matrigel-based analysis; type: functional, cell-based; conditions: dose 5-15 nM
[9] = Toxicity against BALB/c nude mouse xenografted with human NCI-H1299 cells assessed as change in body weight at 0.75 to 1.5 mg/kg, ip administered every other day for 20 days; type: organism-based; conditions: in vivo, 480 h, dose 0.75-1.5 mg/kg, time 20 day
[10] = test system: HBVP; test: Inhibition of PDGF-BB mRNA expression in human HBVP cells at 5 to 15 nM incubated for 24 hrs by qPCR analysis; type: functional, cell-based; conditions: dose 5-15 nM
[11] = test system: HUVEC; test: Inhibition of pericyte-mediated angiogenesis in PKH26-labeled human HUVEC cells assessed as reduction in PKH67-labeled HBVP recruitment to newly formed capillary by endothelial cells by measuring reduction in overall vessel coverage for branch points and total tube lengths at 5 to 15 nM pericytes pretreated with compound for 48 hrs followed by incubation with endothelial cells and measured within 3 hrs by Matrigel-based fluorescence analysis; type: functional, cell-based; conditions: dose 5-15 nM, time 51.0 hrs
[12] = target: Vascular endothelial growth factor receptor 2 (Homo sapiens) (UniProt P35968); test: Inhibition of VEGF-A-mediated VEGFR2 signaling pathway in human HUVEC cells assessed as reduction in VEGFR2 phosphorylation at Tyr1175 residue at 5 to 15 nM incubated for 36 hrs by western blot analysis; type: cell-based; conditions: dose 5-15 nM
[13] = test system: NCI-H1299; test: Cytotoxicity against human NCI-H1299 cells assessed as reduction in cell viability at 25 nM incubated for 48 hrs by CCK8 assay; type: toxicity, cell-based; conditions: nci-h1299, 48 h, 0.025 µM
[14] = test system: NCI-H460; test: Cytotoxicity against human NCI-H460 cells assessed as reduction in cell viability measured after 72 hrs by MTT assay; type: functional, cell-based; conditions: NCI-H460, 72 h
[15] = test system: HUVEC; test: Downregulation of VEGF-A protein expression in human HUVEC cells at 5 to 15 nM incubated for 36 hrs by western blot analysis; type: functional, cell-based; conditions: dose 5-15 nM
[16] = test system: HMEC-1; test: Cytotoxicity against human HMEC-1 cells assessed as reduction in cell proliferation upto 25 nM measured after 48 hrs by CCK8 assay; type: toxicity, cell-based; conditions: hmec-1, 48 h, 0.025 µM
[17] = test system: NCI-H1299; test: Downregulation of Vimentin protein expression in human NCI-H1299 cells at 5 to 15 nM incubated for 24 hrs by western blot analysis; type: functional, cell-based; conditions: dose 5-15 nM
[18] = test system: HBVP; test: Inhibition of PDGF-BB protein expression in human HBVP cells at 5 to 15 nM incubated for 24 hrs by western blot analysis; type: functional, cell-based; conditions: dose 5-15 nM
[19] = test system: HMEC-1; test: Antiangiogenic activity against human HMEC-1 cells assessed as inhibition of capillary tube-like structure formation incubated for 6 hrs by Matrigel based analysis; type: functional, cell-based; conditions: dose 5-20 nM
[20] = target: Vascular endothelial growth factor receptor 2 (Homo sapiens) (UniProt P35968); test: Inhibition of VEGF-A-mediated VEGFR2 signaling pathway in human HMEC-1 cells assessed as reduction in FAK phosphorylation at Tyr397 residue at 5 to 15 nM incubated for 36 hrs by western blot analysis; type: cell-based; conditions: dose 5-15 nM
[21] = test system: NCI-H1299; test: Downregulation of N-Cadherin mRNA expression in human NCI-H1299 cells at 5 to 15 nM incubated for 24 hrs by qPCR analysis; type: functional, cell-based; conditions: dose 5-15 nM
[22] = test system: NCI-H1299; test: Downregulation of N-Cadherin protein expression in human NCI-H1299 cells at 5 to 15 nM incubated for 24 hrs by western blot analysis; type: functional, cell-based; conditions: dose 5-15 nM
[23] = target: Vascular endothelial growth factor receptor 2 (Homo sapiens) (UniProt P35968); test: Inhibition of VEGF-A-mediated VEGFR2 signaling pathway in human HUVEC cells assessed as reduction in mTOR phosphorylation at Ser2448 residue at 5 to 15 nM incubated for 36 hrs by western blot analysis; type: cell-based; conditions: dose 5-15 nM
[24] = test system: HUVEC; test: Antiangiogenic activity against human HUVEC cells assessed as inhibition of capillary tube-like structure formation at 15 nM incubated for 6 hrs by Matrigel based analysis; type: functional; parameters: scale not given: the % may be the effect or the level left
[25] = test system: NCI-H1299; test: Downregulation of VE-Cadherin mRNA expression in human NCI-H1299 cells at 5 to 15 nM incubated for 24 hrs by qPCR analysis; type: functional, cell-based; conditions: dose 5-15 nM
[26] = target: Vascular endothelial growth factor receptor 2 (Homo sapiens) (UniProt P35968); test: Inhibition of VEGF-A-mediated VEGFR2 signaling pathway in human HMEC-1 cells assessed as reduction in Akt phosphorylation at Thr308 residue at 5 to 15 nM incubated for 36 hrs by western blot analysis; type: cell-based; conditions: dose 5-15 nM
[27] = test system: HUVEC; test: Downregulation of VEGFR2 protein expression in human HUVEC cells at 5 to 15 nM incubated for 36 hrs by western blot analysis; type: functional, cell-based; conditions: dose 5-15 nM
[28] = test system: NCI-H1299; test: Antitumor activity against human NCI-H1299 cells xenografted in BALB/c nude mouse assessed as reduction in Ki67 expression in tumor at 0.75 to 1.5 mg/kg, ip administered every other day for 20 days by immunohistochemical analysis; type: functional, organism-based; conditions: dose 0.75-1.5 mg/kg, time 20.0 day
[29] = test system: HMEC-1; test: Inhibition of VEGF-A secretion in human HMEC-1 cells incubated for 36 hrs by ELISA; type: functional, cell-based; conditions: dose 5-15 nM
[30] = Toxicity against BALB/c nude mouse xenografted with human NCI-H1299 cells assessed as morphological changes in kidneys at 0.75 to 1.5 mg/kg, ip administered every other day for 20 days by Hematoxylin and eosin staining based inverted microscopic analysis; type: organism-based; conditions: in vivo, 480 h, dose 0.75-1.5 mg/kg, time 20 day
[31] = organism: Gallus gallus; test: Ex vivo antiangiogenesis activity in chicken embryo chorioallantonic membrane assessed as reduction in microvessel density at 5 to 20 nM measured after 48 hrs by stereomicroscopic analysis; type: functional, organism-based; conditions: Chorioallantoic membrane, dose 5-20 nM
[32] = test system: HUVEC; test: Antiangiogenic activity against human HUVEC cells assessed as inhibition of capillary tube-like structure formation incubated for 6 hrs by Matrigel based analysis; type: functional, cell-based; conditions: dose 5-20 nM

Sequence of Vascular endothelial growth factor receptor 2 (Homo sapiens) (P35968 whole entry): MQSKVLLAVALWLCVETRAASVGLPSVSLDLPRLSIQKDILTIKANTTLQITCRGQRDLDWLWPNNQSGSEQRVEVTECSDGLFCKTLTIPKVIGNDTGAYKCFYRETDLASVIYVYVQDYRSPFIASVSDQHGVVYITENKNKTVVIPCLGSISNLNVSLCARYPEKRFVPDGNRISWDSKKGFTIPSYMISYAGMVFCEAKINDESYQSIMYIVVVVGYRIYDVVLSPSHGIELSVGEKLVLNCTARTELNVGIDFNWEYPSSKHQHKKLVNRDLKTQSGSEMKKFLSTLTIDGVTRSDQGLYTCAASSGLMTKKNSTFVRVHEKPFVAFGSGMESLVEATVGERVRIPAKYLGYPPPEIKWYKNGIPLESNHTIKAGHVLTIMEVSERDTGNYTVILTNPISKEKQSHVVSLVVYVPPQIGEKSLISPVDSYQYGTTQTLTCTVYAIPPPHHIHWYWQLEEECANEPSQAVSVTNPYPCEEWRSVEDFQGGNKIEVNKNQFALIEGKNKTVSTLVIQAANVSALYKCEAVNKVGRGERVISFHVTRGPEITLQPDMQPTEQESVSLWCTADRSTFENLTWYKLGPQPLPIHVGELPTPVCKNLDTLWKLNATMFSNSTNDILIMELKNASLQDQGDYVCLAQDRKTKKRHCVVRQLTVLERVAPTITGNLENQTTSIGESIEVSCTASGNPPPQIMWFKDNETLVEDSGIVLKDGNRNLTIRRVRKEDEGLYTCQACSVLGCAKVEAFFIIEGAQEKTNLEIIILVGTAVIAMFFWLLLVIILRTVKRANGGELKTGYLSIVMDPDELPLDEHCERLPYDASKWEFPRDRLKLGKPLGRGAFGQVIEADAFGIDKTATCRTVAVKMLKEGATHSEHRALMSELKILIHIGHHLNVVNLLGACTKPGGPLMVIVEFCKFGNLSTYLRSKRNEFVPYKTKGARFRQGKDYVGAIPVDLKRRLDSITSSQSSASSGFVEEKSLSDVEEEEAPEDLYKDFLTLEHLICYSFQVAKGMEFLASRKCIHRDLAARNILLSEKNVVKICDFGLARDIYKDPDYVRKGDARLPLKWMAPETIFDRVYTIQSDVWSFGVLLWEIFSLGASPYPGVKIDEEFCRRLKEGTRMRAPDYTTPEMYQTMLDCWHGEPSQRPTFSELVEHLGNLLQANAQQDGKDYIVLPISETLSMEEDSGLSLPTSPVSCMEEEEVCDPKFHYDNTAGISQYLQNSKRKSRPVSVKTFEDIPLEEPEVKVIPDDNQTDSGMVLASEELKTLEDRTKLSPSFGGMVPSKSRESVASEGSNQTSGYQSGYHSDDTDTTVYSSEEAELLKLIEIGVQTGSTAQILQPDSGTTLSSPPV

COc1ccc(C[C@@H]2NC(=O)[C@@]34OC(=O)O/C=C/[C@@](C)(O)C(=O)[C@@H](C)C/C=C/[C@H]3[C@H](O)[C@](C)(O)[C@@H](C)[C@@H]24)cc1 [SCOPARASIN B]
inhibition [1]: Active
inhibition [2]: Active
inhibition [3]: Active
Activity [4]: 190.09 mm3
inhibition [5]: Active
inhibition [6]: Active
Activity [7]: Non-Toxic
inhibition [8]: Active
Activity [9]: Non-Toxic
inhibition [10]: Active
inhibition [11]: Active
inhibition [12]: Active
Activity [13]: Non-Toxic
IC50 [14]: 3.9 µM
inhibition [15]: Active
Activity [16]: Non-Toxic
inhibition [17]: Active
inhibition [18]: Active
Activity [19]: Dose-Dependent Effect
inhibition [20]: Active
inhibition [21]: Active
inhibition [22]: Active
inhibition [23]: Active
Activity [24]: 100%
inhibition [25]: Active
inhibition [26]: Active
inhibition [27]: inactive
Activity [28]: Active
inhibition [29]: Dose-Dependent Effect
Activity [30]: Non-Toxic
Activity [31]: Active
Activity [32]: Dose-Dependent Effect
